Results on one compound are retold here after patent US20220047552A1, “RAF-1 KINASE INHIBITOR COMPOUNDS FOR SKELETAL MUSCLE MODULATION, METHODS AND USES THEREOF” (SOCIETE DES PRODUITS NESTLE S.A., priority 2018, published 2022).

Assay [1] deals with human primary muscle stem cells. Description: Assay for muscle stem cell commitment (Pax7/MyoD immunofluorescence high content screening). It is filed as cell-based. Conditions: human primary myoblasts, 96 hours. From the text:
The inventors developed a high content screening to test in vitro compounds on human primary adult muscle cells. Human Skeletal Muscle Myoblasts (HSMM) were purchased from Lonza (https://bioscience.lonza.com). These cells were isolated from the upper arm or leg muscle tissue of normal donors and used after the second passage. Several donors have been tested to ensure cell viability and purity before selecting the final donor which was a person. The primary screening assay was based on the high content detection of two important myogenic regulatory factors (Pax7 and MyoD) by immunofluorescence. Pax7 and MyoD are the major hallmarks of muscle stem cell stemness and commitment and can be used to monitor muscle stem cell progeny. In particular, Pax7 marks early amplification while MyoD is a later marker for myogenic commitment, and combinations of these markers define the different states of proliferation, differentiation and self-renewal. […] Human primary myoblasts were seeded in 384 well plates at a density of 1'000 cells per well in skeletal muscle growth medium (SKM-M, AMSbio). For treatment, compounds were directly added to the myoblast cultures 16 hours after initial plating. All cultures were then grown for 96 hours. […] Custom module analysis based on Multi-Wavelength Cell Scoring of the MetaXpress software was used for quantification.

The subject of assay [2] is human primary muscle cells. Nature of the assay: Assay for myogenesis (troponin-T myotube detection). Conditions: human primary myoblasts, differentiation medium, 96 hours, dose dependent response. It is filed as cell-based. The source says:
In order to confirm the results from the primary assay described above, a secondary assay for myogenesis in vitro on all the hits obtained in this primary screening assay. This secondary assay focused on the later stage of myogenesis when the muscle cells fuse together and form multinucleated myotubes. This assay was based on the detection of the mature troponin-T protein that is expressed in myotubes. In particular, two measurements were made: Fusion factor, which is the % of nuclei that are inside the multinucleated myotubes compare to total nuclei and give a readout for muscle cell differentiation. Myotube area, which is measured based on the Troponin T staining and give a readout on the myotube size and muscle fiber growth. Human primary myoblasts were seeded in 384 well plates at a density of 3'000 cells per well in skeletal muscle growth medium (SKM-M, AMSbio). After one day, the differentiation is induced by a medium change. For treatment, compounds were directly added to the myoblast cultures for 96 hours. Myotubes were stained for TroponinT expression using antibodies directed against TroponinT and counterstained with Hoechst 33342 to visualize cell nuclei. Image acquisition was performed using the ImageXpress (Molecular Devices) platform. Custom module analysis based on Multi-Wavelength Cell Scoring of the MetaXpress software was used for quantification.

Consider `O=C1Nc2ccc(I)cc2C1=Cc1cc(Br)c(O)c(Br)c1` [GW5074, 3-(3,5-Dibromo-4-hydroxy-benzylidene)-5-iodo-1,3-dihydro-indol-2-one], for which, in assay [1] (FIG. 1A, dose-dependent response, MyoD+ = Pax7-/MyoD+), the “proportion of MyoD+ cells as percent of total cell number (myogenic commitment)” value was “increase in the proportion of MyoD+ cells”. In addition, the “number of Pax7+ cells (expansion of muscle stem cells)” value in assay [1] (FIG. 1B, dose dependent response, Pax7+ regardless of MyoD expression) was “increase in Pax7+ cells”. For the same compound, the “myogenic differentiation (Fusion Factor, percent nuclei within troponinT-positive myotubes)” value in assay [2] (FIG. 2A) is listed as “enhanced myogenic differentiation”. Further, the “myofiber growth (area covered by troponinT-positive myotubes)” value in assay [2] (FIG. 2B) was “enhanced”.
